# From patent EP3431468B1, “USE OF ADIPONECTIN RECEPTOR AGONISTS IN TREATING DEPRESSION, ANXIETY AND NEUROINFLAMMATION” (CENTRE NATIONAL DE LA RECHERCHE SCIENTIFIQUE, priority 2017, dated 2019)
# Key:
# [1] = tested on: corticosterone-treated mice; assay: Sucrose preference test, chronic administration; assay type: in vivo; details: chronic 1mg/kg ip daily
# Procedure: Three well-established mouse models of depression-like behavior have been used in the present study namely i- the long-term corticosterone treatment in the drinking water (David, Samuels et al. 2009), ii- the peripheral administration of LPS (O'Connor, Lawson et al. 2009) iii- the ApN^-/- mice (Liu, Guo et al. 2012). For chronic AdipoRon treatment, the experimental protocol was as followed: • i- Five weeks old male mice (five/cage) received corticosterone (35mg/L dissolved in tap water containing 4 g/L CD) or vehicle alone ad libitum for during 7 consecutive weeks (David, Samuels et al. 2009). Corticosterone and vehicle solutions were changed every 3 days to prevent possible degradation. […]
# All behavioral testing were conducted during the light phase (between 09:00 and 14:00 am) in compliance with the Institutional Animal Care and Use Committee of the University of Nice-Sophia Antipolis (permission number 010344.01 from the French "Ministère de l'Enseignement Supérieur et de la Recherche" granted to Dr. Joëlle Chabry). • Forced Swimming test (FST) - Mice were placed an inescapable transparent tank (20cm diameter, 30cm deep) filled with water (23°C ± 0.5) for six minutes as previously described by Porsolt et al. (1977). […] To initiate testing, mice were placed into the light side and activity was recorded for 5 minutes. […]
# [2] = tested on: wt mice; assay: Rotarod, motor coordination; assay type: in vivo; details: chronic ip 1mg/kg for twenty consecutive days
# Procedure: All behavioral testing were conducted during the light phase (between 09:00 and 14:00 am) in compliance with the Institutional Animal Care and Use Committee of the University of Nice-Sophia Antipolis (permission number 010344.01 from the French "Ministère de l'Enseignement Supérieur et de la Recherche" granted to Dr. Joëlle Chabry). • Forced Swimming test (FST) - Mice were placed an inescapable transparent tank (20cm diameter, 30cm deep) filled with water (23°C ± 0.5) for six minutes as previously described by Porsolt et al. (1977). The immobility duration, as an index of the resignation, was timed during the last four minutes of the test. A mouse was considered immobile when it remained floating with only slight movements to keep its head out of the water. • Open-field test (OF) - Locomotor activity was determined using open-field (OF) activity. […] Twenty-four hours later, the latency to fall, an index of the motor coordination, was recorded on accelerating rod (from 10 to 40 rpm/min). • Light & Dark test (L&D) - The L&D place preference test was used to assess the anxiety-like behavior. […] To initiate testing, mice were placed into the light side and activity was recorded for 5 minutes. […] The amount of water and 1% sucrose solution was measured twenty-four hours later. […]
smiles,measurement,setting,value
"O=C(COc1ccc(C(=O)c2ccccc2)cc1)NC1CCN(Cc2ccccc2)CC1 [AdipoRon, 2-(4-Benzoylphenoxy)-N-[1-(phenylmethyl)-4-piperidinyl]-acetamide]",sucrose preference (anhedonia),[1]; corticosterone-treated mice,reversed the effect of corticosterone
same,sucrose preference (anhedonia),[1]; vehicle-treated mice (no corticosterone),no significant effect
same,motor coordination (rotarod),[2],did not significantly modify
